# How the values were obtained:
# Assay type in all cases: cell-based
# PDE3A and SLFN12 = experiment: Complex formation of PDE3A and SLFN12 (immunoprecipitation using anti-PDE3A antibody); conditions: PFSK-1 and HeLa cell lines, 1 μmol/L, 16 hours, FIG. 1
# Method: In order to examine whether Compound 1 forms a complex between PDE3A and SLFN12, a binding confirmation experiment using immunoprecipitation was performed. PFSK-1 and HeLa which are cell lines expressing PDE3A and SLFN12 were treated with Compound 1 (1 μmol/L) for 16 hours, and then immunoprecipitated using anti-PDE3A antibody.
# [1] = tested on: Bone marrow-derived CD34-positive cells (CD13-positive and CD15-positive myeloid cells); experiment: Differentiation from CD34-positive cells toward myeloid cells (HemaTox Myeloid Kit, flow cytometry); conditions: cultured 7 days, two donors, FIG. 5
# Method: (§1) It was studied whether Compound 1 inhibits the differentiation from CD34-positive cells toward myeloid cells. Bone marrow-derived CD34-positive cells were cultured for 7 days in myeloid differentiation medium (HemaTox™ Myeloid Kit, STEMCELL™ Technologies) according to the kit's instruction. The number of the CD13-positive and CD15-positive myeloid cells was counted by flow cytometry and the cell viability relative to the untreated cell group was calculated. The test was conducted twice using CD34-positive cells derived from different donors, and the cell viability was determined with the control as 100%.
# SLFN12 protein = experiment: Increase of SLFN12 protein (Western blot analysis); conditions: 1 μmol/L, 16 hours, FIG. 2
# Method: In order to examine the effect of Compound 1 on the protein level of SLFN12, Western blot analysis was performed. PFSK-1, HeLa, or U-87 MG cell lines were treated with Compound 1 (1 μmol/L) for 16 hours, and SLFN12 protein in each test sample was detected.
# [2] = tested on: Bone marrow-derived CD34-positive cells (CD71-positive and CD235-positive erythroid cells); experiment: Differentiation from CD34-positive cells toward erythroblasts (HemaTox Erythroid Kit, flow cytometry); conditions: concentrations of 100 nmol/L or lower, cultured 7 days, two donors, FIG. 4
# Method: as §1, with “toward erythroblasts.” for “toward myeloid cells.”, “in erythroid” for “in myeloid”, “(HemaTox™ Erythroid” for “(HemaTox™ Myeloid”, “the CD71-positive” for “the CD13-positive”, “and CD235-positive erythroid” for “and CD15-positive myeloid”, “cells were” for “cells was”
# [3] = tested on: Bone marrow-derived CD34-positive cells (CD41-positive megakaryocytes); experiment: Inhibition of differentiation from CD34-positive cells toward megakaryocytes (HemaTox Megakaryocyte Kit, flow cytometry); conditions: 240 h, cultured 10 days, three donors
# Method: as §1, with “megakaryocytes.” for “myeloid cells.”, “10” for “7”, “the presence and absence of Compound 1 in megakaryocyte” for “myeloid”, “Megakaryocyte” for “Myeloid”, “CD41-positive megakaryocytes” for “CD13-positive and CD15-positive myeloid cells”, “three times” for “twice”
structure (smiles),measurement,setting,value
"C[C@@H]1CC(=O)NN=C1c1ccc(OCC(C)(C)O)c(F)c1F [Compound 1, (R)-6-(2,3-difluoro-4-(2-hydroxy-2-methylpropoxy)phenyl)-5-methyl-4,5-dihydropyridazin-3(2H)-one]",coprecipitation of SLFN12 with PDE3A (complex formation),PDE3A and SLFN12,coprecipitation with SLFN12 was confirmed
same,effect on differentiation from hematopoietic stem cells toward myeloid cells,[1]; 30 nmol/L,inhibited
same,effect on differentiation from hematopoietic stem cells toward myeloid cells,[1]; 100 nmol/L,no significant difference
same,concentration dependence of the effect on differentiation toward myeloid cells,[1],no concentration-dependent inhibitory effect
same,SLFN12 protein level compared to untreated,SLFN12 protein; PFSK-1 or HeLa (highly expresses PDE3A),increased SLFN12 protein levels were observed
same,SLFN12 protein level compared to untreated,SLFN12 protein; U-87 MG (hardly expresses PDE3A),"no significant, Compound 1-dependent increase in SLFN12 protein level was observed"
same,effect on differentiation from hematopoietic stem cells toward erythroid cells,[2],did not affect
same,minimal effective concentration,"[3]; FIG. 3, read-out: concentration that significantly decreased the number of CD41-positive megakaryocytes",≥ 0.003 µM
same,IC50,"[3]; control as 100%, 95% confidence interval 10.3-23.7 nmol/L, read-out: 50% inhibitory concentration (IC50), number of CD41-positive megakaryocytes",17 nM

# From patent publication US20260284048A1, “INHIBITOR OF MEGAKARYOCYTE DIFFERENTIATION AND MATURATION” (OTSUKA PHARMACEUTICAL CO., LTD., priority 2023, published 2026)
